Biological target: T1, human 5-HT2B receptor (Homo sapiens, UniProt P41595)
T1 construct: expressed in transfected cells; host or cells: CHO cells
Test: Antagonism of human serotonin 5-HT2B, IP1 functional assay (HTRF) in transfected CHO cells
Assay type: cell-based
Conditions: inhibition of IP1 production induced by 30 nM 5-HT
Protocol: The human 5-HT2B receptor expressed in transfected CHO cells is used to determine antagonistic effects by measuring the effects on agonist-induced inositol monophosphate (IP1) production using the HTRF® detection method (Porter et al., 1999, Brit. J. Pharmacol., 128: 13-20; Trinquet et al., 2006, Analytical Biochemistry 358, 126-135) The CHO cells can be suspended in a buffer containing 10 mM Hepes/NaOH (pH 7.4), 4.2 mM KCl, 146 mM NaCl, 1 mM CaCl2, 0.5 mM MgCl2, 5.5 mM glucose and 50 mM LiCl, then distributed in microtiter plates at a density of about 20000 cells/well and preincubated for 5 min at room temperature in the presence of buffer (basal control), test compound, i.e. reference samples and inventive mixture of retinyl acetate (“retAc”) (see Table 1) or a very potent known reference antagonist SB-206553. Thereafter, the reference agonist 5-HT (serotonin) is added at a final concentration of 30 nM. […] Following 30 min incubation at 37° C., the cells are lysed and the fluorescence acceptor (D2-labeled IP1) and fluorescence donor (anti-IP1 antibody labeled with europium cryptate) are added. After 60 min at room temperature, the fluorescence transfer is measured at wavelengths Ex=337 nm and Em=620 and 665 nm using a microplate reader (Envision, Perkin Elmer). The IP1 concentration can be determined by dividing the signal measured at 665 nm by that measured at 620 nm (ratio). The results are expressed as a percent inhibition of the control response to 30 nM 5-HT. Mean values, standard deviation are calculated and used in a dose response model to calculate the IC50 values.
The standard reference antagonist SB-206553 is tested in each experiment at several concentrations to generate a concentration-response curve. The dose response curve is used to calculate the IC50 value. The same procedure is done for RetAc mix and the Reference RetAc to determine the IC50 values.

T1 sequence (P41595 whole entry): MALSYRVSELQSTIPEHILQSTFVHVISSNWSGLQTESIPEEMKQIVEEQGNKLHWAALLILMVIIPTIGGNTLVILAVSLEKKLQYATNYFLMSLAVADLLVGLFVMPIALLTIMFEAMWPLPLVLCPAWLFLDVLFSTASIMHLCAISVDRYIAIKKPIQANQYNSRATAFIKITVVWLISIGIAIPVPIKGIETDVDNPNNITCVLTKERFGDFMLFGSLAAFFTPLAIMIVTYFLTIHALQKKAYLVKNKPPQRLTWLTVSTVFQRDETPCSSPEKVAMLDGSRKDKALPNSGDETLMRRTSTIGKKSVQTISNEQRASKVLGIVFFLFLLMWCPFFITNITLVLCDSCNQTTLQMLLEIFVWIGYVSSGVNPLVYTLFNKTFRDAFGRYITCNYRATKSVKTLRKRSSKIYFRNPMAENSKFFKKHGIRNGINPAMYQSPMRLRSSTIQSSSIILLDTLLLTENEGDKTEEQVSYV

| IC50 [µM] | SMILES |
| --- | --- |
| 12 | CC(=O)OC/C=C(C)/C=C/C=C(C)/C=C/C1=C(C)CCCC1(C)C [Reference retAc, retinyl acetate] |
| 5.2 | CC(=O)OC/C=C(C)/C=C/C=C(C)/C=C/C1=C(C)CCCC1(C)C [RetAc mix, retinyl acetate] |

| SMILES | IC50 [µM] |
| --- | --- |
| Cn1ccc2cc3c(cc21)CCN3C(=O)Nc1cccnc1 [SB-206553] | 0.026 |
